Laboratory results from patent publication US20170198006A1, “PRMT5 INHIBITORS AND USES THEREOF” (Epizyme, Inc., priority 2014, published 2017).
Like-named read-outs stand apart in the source and are kept apart here.

Biological target: T1, PRMT5/MEP50 (Homo sapiens, UniProt O14744)
T1 construct: Flag-PRMT5; made in house; host or cells: Spodoptera frugiperda (SF9), baculovirus
Assay: PRMT5 Biochemical Assay (PRMT5/MEP50 enzyme assay on histone H4 peptide substrate, 3H-SAM Flashplate)
From the text: S-adenosylmethionine (SAM), S-adenosylhomocysteine (SAH), bicine, KCl, Tween20, dimethylsulfoxide (DMSO), bovine skin gelatin (BSG), and Tris(2-carboxyethyl)phosphine hydrochloride solution (TCEP) were purchased from Sigma-Aldrich at the highest level of purity possible. ^3H-SAM was purchase from American Radiolabeled Chemicals with a specific activity of 80 Ci/mmol. 384-well streptavidin Flashplates were purchased from PerkinElmer.
Peptide representative of human histone H4 residues 1-15 was synthesized with a C-terminal linker-affinity tag motif and a C-terminal amide cap by 21st Century Biochemicals.
The amplified genes were sublconed into pENTR/D/TEV (Life Technologies) and subsequently transferred by Gateway™ attL×attR recombination to pDEST8 baculvirus expression vector (Life Technologies).
Protein over-expression was accomplished by infecting exponentially growing Spodoptera frugiperda (SF9) cell culture at 1.2×10^6 cell/ml with a 5000 fold dilution of BIIC stock. Infections were carried out at 27° C. for 72 hours, harvested by centrifugation, and stored at −80° C. for purification.
Flag-PRMT5/6His-MeP50 was eluted with 300 mM Imidazole in the same buffer.
General Procedure for PRMT5/MEP50 Enzyme Assays on Peptide Substrates.
The assays were all performed in a buffer consisting of 20 mM Bicine (pH=7.6), 1 mM TCEP, 0.005% BSG, and 0.002% Tween20, prepared on the day of use. […] DMSO (1 ul) was added to Columns 11, 12, 23, 24, rows A-H for the maximum signal control and 1 ul of SAH, a known product and inhibitor of PRMT5/MEP50, was added to columns 11, 12, 23, 24, rows I-P for the minimum signal control. A cocktail (40 ul) containing the PRMT5/MEP50 enzyme and the peptide was added by Multidrop Combi (Thermo-Fisher). The compounds were allowed to incubate with PRMT5/MEP50 for 30 min at 25 degrees Celsius, then a cocktail (10 ul) containing ^3H-SAM was added to initiate the reaction (final volume=51 ul). […] The assays were stopped by the addition of non-radioactive SAM (10 ul) to a final concentration of 600 uM, which dilutes the ^3H-SAM to a level where its incorporation into the peptide substrate is no longer detectable. 50 ul of the reaction in the 384-well polypropylene plate was then transferred to a 384-well Flashplate and the biotinylated peptides were allowed to bind to the streptavidin surface for at least 1 hour before being washed three times with 0.1% Tween20 in a Biotek ELx405 plate washer. The plates were then read in a PerkinElmer TopCount plate reader to measure the quantity of ^3H-labeled peptide bound to the Flashplate surface, measured as disintegrations per minute (dpm) or alternatively, referred to as counts per minute (cpm).
Where dpm=disintegrations per minute, cmpd=signal in assay well, and min and max are the respective minimum and maximum signal controls.
Where top and bottom are the normally allowed to float, but may be fixed at 100 or 0 respectively in a 3-parameter fit. The Hill Coefficient normally allowed to float but may also be fixed at 1 in a 3-parameter fit. Y is the % inhibition and X is the compound concentration.

[1] = PRMT5 biochemical assay, read-out: Biochemical IC50

T1 sequence (O14744 with tags, fused parts or gaps): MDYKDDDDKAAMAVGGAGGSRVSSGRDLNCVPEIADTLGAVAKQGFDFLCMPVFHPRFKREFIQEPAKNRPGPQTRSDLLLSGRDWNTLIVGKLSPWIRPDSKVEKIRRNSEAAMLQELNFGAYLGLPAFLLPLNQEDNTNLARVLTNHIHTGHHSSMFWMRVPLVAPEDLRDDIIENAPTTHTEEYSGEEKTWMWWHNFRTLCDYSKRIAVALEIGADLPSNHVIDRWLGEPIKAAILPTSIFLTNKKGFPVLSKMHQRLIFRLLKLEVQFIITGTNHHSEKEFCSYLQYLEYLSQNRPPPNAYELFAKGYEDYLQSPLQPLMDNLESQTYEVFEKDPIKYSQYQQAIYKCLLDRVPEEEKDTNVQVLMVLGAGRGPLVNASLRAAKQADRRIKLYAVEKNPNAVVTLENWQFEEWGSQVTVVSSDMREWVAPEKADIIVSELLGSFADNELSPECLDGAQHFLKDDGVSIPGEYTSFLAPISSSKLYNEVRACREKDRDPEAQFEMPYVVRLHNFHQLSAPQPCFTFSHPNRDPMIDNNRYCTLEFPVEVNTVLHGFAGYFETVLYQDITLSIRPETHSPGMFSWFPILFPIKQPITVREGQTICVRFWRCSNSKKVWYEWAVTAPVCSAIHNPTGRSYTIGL
T1 sequence (Q9BQA1 with tags, fused parts or gaps partner limits assumed): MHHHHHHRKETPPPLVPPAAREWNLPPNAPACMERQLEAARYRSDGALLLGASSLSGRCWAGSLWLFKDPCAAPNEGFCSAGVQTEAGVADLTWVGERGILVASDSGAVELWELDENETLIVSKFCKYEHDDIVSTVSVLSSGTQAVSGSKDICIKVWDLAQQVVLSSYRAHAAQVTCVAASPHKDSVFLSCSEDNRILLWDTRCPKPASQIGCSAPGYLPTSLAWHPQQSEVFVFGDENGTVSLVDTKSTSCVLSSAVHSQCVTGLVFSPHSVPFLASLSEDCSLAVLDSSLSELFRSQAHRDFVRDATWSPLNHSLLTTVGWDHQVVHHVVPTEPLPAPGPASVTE

Row | SMILES | IC50 [1] | IC50
1 | CN(CCNCc1ccc(OC(F)F)cc1)C[C@H]1O[C@@H](n2cnc3c(N)ncnc32)[C@H](O)[C@@H]1O [Compound 1-1] | 0.101 to 1 µM | –
2 | COc1cccc([C@H](C)NCCN(C)C[C@H]2O[C@@H](n3cnc4c(N)ncnc43)[C@H](O)[C@@H]2O)c1 [Compound 2-1] | 0.101 to 1 µM | –
3 | NCc1nc(CCNC(=O)c2ccccc2)cn1Cc1ccccc1 [Compound 2-2, N-(2-(2-(aminomethyl)-1-benzyl-1H-imidazol-4-yl)ethyl)benzamide] | 0.101 to 1 µM | –
4 | O=C(CC1NC(N2CCN(c3ccccc3)CC2)=NC1=O)c1ccccc1Cl (stereo not drawn) [Compound 2-6] | 0.101 to 1 µM | –
5 | CN1CCN(C2=NC(=O)C(CC(=O)Nc3ccc(Cl)cc3)N2)CC1 (stereo not drawn) [Compound 2-14] | 1 to 10 µM | –
6 | Cc1ccc(C(C)NCCN(C)C[C@H]2O[C@@H](n3cnc4c(N)ncnc43)[C@H](O)[C@@H]2O)cc1 (stereo partly drawn) [Compound 3-1] | 0.101 to 1 µM | –
7 | COc1ccccc1C(=O)CC1NC(N2CCN(c3ccccc3)CC2)=NC1=O (stereo not drawn) [Compound 3-6] | 0.101 to 1 µM | –
8 | Cc1cccc(CN(C)CCN(C)C[C@H]2O[C@@H](n3cnc4c(N)ncnc43)[C@H](O)[C@@H]2O)c1 [Compound 4-1] | 0.101 to 1 µM | –
9 | O=C(CC1NC(N2CCN(c3ccccc3)CC2)=NC1=O)Nc1ccc(Br)cc1 (stereo not drawn) [Compound 4-6] | 0.101 to 1 µM | –
10 | Cc1ccc(NC(=O)CC2NC(N3CCN(C)CC3)=NC2=O)cc1 (stereo not drawn) [Compound 4-14] | 10 to 50 µM | –
11 | CC(NCCN(C)C[C@H]1O[C@@H](n2cnc3c(N)ncnc32)[C@H](O)[C@@H]1O)c1ccccc1 (stereo partly drawn) [Compound 5-1] | 0.101 to 1 µM | –
12 | COc1ccccc1C(=O)CC1NC(N2CCc3ccccc3C2)=NC1=O (stereo not drawn) [Compound 5-6] | < 0.1 µM | –
13 | Cc1cnc(CN)n1Cc1ccccc1 [Compound 5-13] | 1 to 10 µM | –
14 | CCN1CCN(C2=NC(=O)C(CC(=O)Nc3ccc(C)cc3)N2)CC1 (stereo not drawn) [Compound 5-14] | 1 to 10 µM | –
15 | CN(CCN(C)C[C@H]1O[C@@H](n2cnc3c(N)ncnc32)[C@H](O)[C@@H]1O)Cc1ccccc1Cl [Compound 6-1] | 0.101 to 1 µM | –
16 | COc1ccccc1C(=O)CC1NC(N2CC=C(c3ccccc3)CC2)=NC1=O (stereo not drawn) [Compound 6-6] | 0.101 to 1 µM | –

Row | SMILES | IC50 [1] | IC50
17 | O=C(CC1NC(N2CCN(Cc3ccccc3)CC2)=NC1=O)Nc1ccccc1 (stereo not drawn) [Compound 6-14] | – | 10 to 50 µM
18 | CN(CCNCc1ccc(Cl)cc1Cl)C[C@H]1O[C@@H](n2cnc3c(N)ncnc32)[C@H](O)[C@@H]1O [Compound 7-1] | 0.101 to 1 µM | –
19 | NCc1ncc(CCNC(=O)c2ccccc2)n1Cc1ccccc1 [Compound 7-13] | 10 to 50 µM | –
20 | COc1ccc(NC(=O)CC2NC(N3CCN(c4ccccn4)CC3)=NC2=O)cc1 (stereo not drawn) [Compound 7-14] | 1 to 10 µM | –
21 | CN(CCNCc1ccc(Cl)cc1)C[C@H]1O[C@@H](n2cnc3c(N)ncnc32)[C@H](O)[C@@H]1O [Compound 8-1] | 0.101 to 1 µM | –
22 | Cc1cccc(NC(=O)CC2NC(N3CCN(c4ccccc4)CC3)=NC2=O)c1 (stereo not drawn) [Compound 8-14] | 1 to 10 µM | –
23 | CN(CCN(C)C[C@H]1O[C@@H](n2cnc3c(N)ncnc32)[C@H](O)[C@@H]1O)Cc1ccccc1 [Compound 9-1] | 0.101 to 1 µM | –
24 | Cc1ccc(NC(=O)CC2NC(N3CCN(Cc4ccccc4)CC3)=NC2=O)cc1 (stereo not drawn) [Compound 9-14] | 1 to 10 µM | –
25 | CN(CCN(C)C[C@H]1O[C@@H](n2cnc3c(N)ncnc32)[C@H](O)[C@@H]1O)Cc1ccc(Cl)cc1 [Compound 10-1] | 0.101 to 1 µM | –
26 | CC(=O)Nc1ccc(NC(=O)CC2NC(N3CCN(c4ccccc4)CC3)=NC2=O)cc1 (stereo not drawn) [Compound 10-14] | 10 to 50 µM | –
27 | COc1cc(CNCCN(C)C[C@H]2O[C@@H](n3cnc4c(N)ncnc43)[C@H](O)[C@@H]2O)cc(OC)c1 [Compound 11-1] | 0.101 to 1 µM | –
28 | CCN1CCN(C2=NC(=O)C(CC(=O)Nc3ccc(OC)cc3)N2)CC1 (stereo not drawn) [Compound 11-14] | 1 to 10 µM | –
29 | CN(CCNCc1ccccc1)C[C@H]1O[C@@H](n2cnc3c(N)ncnc32)[C@H](O)[C@@H]1O [Compound 12-1] | 0.101 to 1 µM | –
30 | CN(CCNCc1ccc(Cl)c(Cl)c1)C[C@H]1O[C@@H](n2cnc3c(N)ncnc32)[C@H](O)[C@@H]1O [Compound 13-1] | 0.101 to 1 µM | –
31 | O=C(CC1NC(N2CCc3ccccc3C2)=NC1=O)Nc1ccccc1 (stereo not drawn) [Compound 13-14] | 1 to 10 µM | –
32 | CN(CCNCc1ccco1)C[C@H]1O[C@@H](n2cnc3c(N)ncnc32)[C@H](O)[C@@H]1O [Compound 14-1] | 0.101 to 1 µM | –

The next lines start with results.

Row | IC50 [1] | SMILES | IC50
33 | 1 to 10 µM | CCN1CCN(C2=NC(=O)C(CC(=O)Nc3ccc(C(C)=O)cc3)N2)CC1 (stereo not drawn) [Compound 14-14] | –
34 | < 0.1 µM | CN(CCNCc1ccccc1F)C[C@H]1O[C@@H](n2cnc3c(N)ncnc32)[C@H](O)[C@@H]1O [Compound 15-1] | –
35 | 1 to 10 µM | CCOc1ccc(NC(=O)CC2NC(N3CCN(c4ccccc4F)CC3)=NC2=O)cc1 (stereo not drawn) [Compound 15-14] | –
36 | < 0.1 µM | CN(CCNCc1ccc(F)cc1)C[C@H]1O[C@@H](n2cnc3c(N)ncnc32)[C@H](O)[C@@H]1O [Compound 16-1] | –
37 | 1 to 10 µM | CC(C)c1ccc(NC(=O)CC2NC(N3CCN(c4ccccn4)CC3)=NC2=O)cc1 (stereo not drawn) [Compound 16-14] | –
38 | < 0.1 µM | CCN(CCN(C)C[C@H]1O[C@@H](n2cnc3c(N)ncnc32)[C@H](O)[C@@H]1O)Cc1ccncc1 [Compound 17-1] | –
39 | 1 to 10 µM | CCOC(=O)c1ccc(NC(=O)CC2NC(N3CCN(c4ccccn4)CC3)=NC2=O)cc1 (stereo not drawn) [Compound 17-14] | –
40 | < 0.1 µM | CC(NCCN(C)C[C@H]1O[C@@H](n2cnc3c(N)ncnc32)[C@H](O)[C@@H]1O)c1ccc(Br)cc1 (stereo partly drawn) [Compound 18-1] | –
41 | 1 to 10 µM | O=C(CC1NC(N2CCN(c3ccccc3)CC2)=NC1=O)Nc1ccccc1 (stereo not drawn) [Compound 18-14] | –
42 | 0.101 to 1 µM | CN(CCNCc1ccc(Cl)cc1F)C[C@H]1O[C@@H](n2cnc3c(N)ncnc32)[C@H](O)[C@@H]1O [Compound 19-1] | –
43 | 1 to 10 µM | CCc1ccc(NC(=O)CC2NC(N3CCN(CC)CC3)=NC2=O)cc1 (stereo not drawn) [Compound 19-14] | –
44 | 0.101 to 1 µM | COc1cccc(CN(C)CCN(C)C[C@H]2O[C@@H](n3cnc4c(N)ncnc43)[C@H](O)[C@@H]2O)c1 [Compound 20-1] | –
45 | 1 to 10 µM | COc1ccc(N2CCN(C3=NC(=O)C(CC(=O)Nc4ccc(C(C)=O)cc4)N3)CC2)cc1 (stereo not drawn) [Compound 21-14] | –
46 | 0.101 to 1 µM | CC(N)CCN(C)C[C@H]1O[C@@H](n2cnc3c(N)ncnc32)[C@H](O)[C@@H]1O (stereo partly drawn) [Compound 22-1] | –
47 | < 0.1 µM | NCCCN(CC[C@H](N)C(=O)O)C[C@H]1O[C@@H](n2cnc3c(N)ncnc32)[C@H](O)[C@@H]1O [Compound 23-1] | –
48 | 1 to 10 µM | Cc1ccc(NC(=O)CC2NC(N3CCc4ccccc4C3)=NC2=O)cc1 (stereo not drawn) [Compound 23-14] | –
49 | < 0.1 µM | NCCCCN(CC[C@H](N)C(=O)O)C[C@H]1O[C@@H](n2cnc3c(N)ncnc32)[C@H](O)[C@@H]1O [Compound 24-1] | –
50 | 10 to 50 µM | CCOC(=O)c1ccc(NC(=O)CC2NC(N3CCN(C)CC3)=NC2=O)cc1 (stereo not drawn) [Compound 24-14] | –
51 | 0.101 to 1 µM | CC(C)N(CCCN)C[C@H]1O[C@@H](n2cnc3c(N)ncnc32)[C@H](O)[C@@H]1O [Compound 25-1] | –
52 | 10 to 50 µM | COc1ccc(N2CCN(C3=NC(=O)C(CC(=O)Nc4ccccc4)N3)CC2)cc1 (stereo not drawn) [Compound 25-14] | –
53 | 0.101 to 1 µM | CC(C)N(CCN)C[C@H]1O[C@@H](n2cnc3c(N)ncnc32)[C@H](O)[C@@H]1O [Compound 26-1] | –
54 | 10 to 50 µM | CC(=O)c1ccc(NC(=O)CC2NC(N3CCN(C)CC3)=NC2=O)cc1 (stereo not drawn) [Compound 26-14] | –
55 | 0.101 to 1 µM | CN(CCN)C[C@H]1O[C@@H](n2cnc3c(N)ncnc32)[C@H](O)[C@@H]1O [Compound 27-1] | –
56 | 1 to 10 µM | Cc1ccc(C(=O)CC2NC(N3CCN(C)CC3)=NC2=O)cc1 (stereo not drawn) [Compound 27-14] | –
57 | 0.101 to 1 µM | CC(CN)N(C)C[C@H]1O[C@@H](n2cnc3c(N)ncnc32)[C@H](O)[C@@H]1O (stereo partly drawn) [Compound 28-1] | –
58 | 1 to 10 µM | Cc1ccc(C(=O)CC2NC(N3CCN(Cc4ccccc4)CC3)=NC2=O)cc1 (stereo not drawn) [Compound 28-14] | –
59 | 0.101 to 1 µM | NCCNC[C@H]1O[C@@H](n2cnc3c(N)ncnc32)[C@H](O)[C@@H]1O [Compound 29-1] | –
60 | 0.101 to 1 µM | Cc1ccc(C(=O)CC2NC(N3CCc4ccccc4C3)=NC2=O)cc1 (stereo not drawn) [Compound 29-14] | –
